Patent US6344451B1, “Pyrrolobenzodiazepine carboxyamide vasopressin agonists” (American Home Products, priority 1999, dated 2002)

Biological target: T1, Vasopressin V2 (Rattus norvegicus, UniProt Q00788)
T1 construct: Male or female normotensive Sprague-Dawley rats; from tissue; host or cells: whole living Sprague-Dawley rat (V2 receptors of the kidney collecting ducts)
Experiment: Vasopressin V2 agonist effects of test compounds in normal conscious water-loaded rats
Assay type: in vivo
Conditions: oral dose of 10 mg/Kg, urine collected for four hours, Sprague-Dawley (CD) rats; for Changes in Urinary Osmolality: osmolality changes expressed as percent of control; for Urine Volume (% decrease): percent decrease in urine volume vs. control
Source text: Vasopressin V2 Agonist Effects of Test Compounds in Normal Conscious Water-Loaded Rats:
Male or female normotensive Sprague-Dawley rats (Charles River Laboratories, Inc., Kingston, N.Y.) of 350-500 g body weight were supplied with standard rodent diet (Purina Rodent Lab. Chow 5001) and water ad libitum. On the day of test, rats were placed individually into metabolic cages equipped with devices to separate the feces from the urine and containers for collection of urine. A test compound or a reference agent was given at an oral dose of 10 mg/Kg in a volume of 10 mL/Kg. The vehicle used was 20% dimethylsulfoxide (DMSO) in 2.5% preboiled corn starch. Thirty minutes after dosing the test compound, rats were gavaged with water at 30 mL/Kg into the stomach using a feeding needle. During the test, rats were not provided with water or food. Urine was collected for four hours after dosing of the test compound. At the end of four hours, urine volume was measured. Urinary osmolality was determined using a Fiske One-Ten Osmometer (Fiske Associates, Norwood, Mass., 02062) or an Advanced CRYOMATIC Osmometer, Model 3C2 (Advanced Instruments, Norwood, Mass.). Determinations of Na^+, K^+ and Cl^− ion were carried out using ion specific electrodes in a Beckman SYNCHRON EL-ISE Electrolyte System analyzer. The urinary osmolality should increase proportionally. In the screening test, two rats were used for each compound. If the difference in the urine volume of the two rats was greater than 50%, a third rat was used.

T1 sequence (Q00788 whole entry): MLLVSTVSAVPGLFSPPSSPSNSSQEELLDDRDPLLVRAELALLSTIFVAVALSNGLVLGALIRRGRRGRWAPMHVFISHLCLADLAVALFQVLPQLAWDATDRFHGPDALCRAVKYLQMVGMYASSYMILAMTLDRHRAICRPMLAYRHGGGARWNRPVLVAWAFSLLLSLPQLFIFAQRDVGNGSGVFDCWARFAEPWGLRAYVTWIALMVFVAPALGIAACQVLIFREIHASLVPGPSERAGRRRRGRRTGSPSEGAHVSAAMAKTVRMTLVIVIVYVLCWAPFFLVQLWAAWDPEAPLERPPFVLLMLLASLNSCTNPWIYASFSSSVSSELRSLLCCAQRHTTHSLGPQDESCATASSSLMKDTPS

| SMILES | Changes in Urinary Osmolality | Urine Volume (% decrease) |
| --- | --- | --- |
| O=C(c1ccc2ncsc2c1)N1Cc2cccn2Cc2ccccc21 [Example 4, (Benzothiazol-6-yl)-(5H-10,11-dihydro-pyrrolo[2,1-c][1,4]benzodiazepin-10-yl)-methanone] | 3% of control | 19 |
| O=C(c1ccc2c(c1)CCO2)N1Cc2cccn2Cc2ccccc21 [Example 3, (2,3-Dihvdro-benzofuran-5-yl)-(5H-10.11-dihydro-pyrrolo [2,1-c][1,4]benzodiazepin-10-yl)-methanone] | 10% of control | 32 |
| O=C(c1ccc2c(c1)OCO2)N1Cc2cccn2Cc2ccccc21 [Example 2, Benzo[1,3]dioxol-5-yl-(5H-10,11-dihydro-pyrrolo [2,1-c][1,4]benzodiazepin-10-yl)-methanone] | 41% of control | 23 |
| Cn1ccc2cc(C(=O)N3Cc4cccn4Cc4ccccc43)ccc21 [Example 1, (5H-10,11-Dihydro-pyrrolo [2,1-c][1,4]benzodiazepin-10-yl)-(1-methyl-1H-indol-5-yl)-methanone] | 174% of control | 66 |
